{
  "source": "patent US12521361B2",
  "about": "“Use of sodium octanoate in preparation of medicine for improving the efficacy of cardiopulmonary resuscitation and post-resuscitation multiple organ dysfunction” (ZHEJIANG UNIVERSITY, priority 2021, dated 2026)",
  "assay_type_in_all_cases": "in vivo, domestic healthy male white pigs",
  "key": {"[1]": {"test_system": "model of cardiac arrest and resuscitation", "assay": "Outcomes of cardiopulmonary resuscitation and cardiac/cerebral perfusion in pig model of cardiac arrest and resuscitation", "method": "(§1) • 1. All animals started fasting without water deprivation 12 h before experiment. • 2. The experimental animals were firstly intramuscularly injected with midazolam by 0.4-0.5 mg/kg for induced anesthesia, connected to an electrocardiogram monitor, then injected with propofol by 2 mg/kg through ear vein for general anesthesia, and afterwards maintained in an anesthetic state through infusing 4 mg/kg/h via the vein. • 3. Endotracheal intubation, monitoring of partial pressure of end-tidal carbon dioxide (ETCO2), and mechanical ventilation were rapidly carried out, wherein ventilation parameters were an intermittent positive pressure ventilation (IPPV) mode, with oxygen concentration of 21%, tidal volume of 10 ml/kg, and positive end-expiratory pressure of 0 mmHg, and ETCO2 was maintained in a normal physiological range of 35-40 mmHg by adjusting respiratory frequency. • 4. Right femoral artery and vein were exposed by operation, and Swan-Ganz catheters were respectively disposed into thoracic aorta and right atrium, wherein the former was used to monitor aortic blood pressure and collect an arterial blood sample, and the catheter main chamber of the latter was used to monitor right atrial pressure and body temperature and collect a venous blood sample, a catheter side chamber was used to infuse a therapeutic medicine, and calculate the level of coronary perfusion pressure (CPP) according to the difference between decompression diastolic aortic and time-coincident right atrial pressures. • 5. Right external jugular vein was exposed by operation, and an inducing electrode for ventricular fibrillation was disposed into right ventricle to induce ventricular fibrillation later. • 6. Right internal jugular vein and left femoral artery were exposed by operation, a central venous catheter and a thermodilution arterial catheter were respectively disposed therein, and the two were connected to a pulse indication continuous cardiac output (PiCCO) monitor, for monitoring the changes of cardiac function including stroke volume (SV) and global ejection fraction (GEF). • 7. Right carotid artery was exposed by operation, superficial fascia was stripped off, a carotid blood flow sensor was arranged, and then a blood flow velocity ultrasonic recorder was connected to monitor the change of carotid blood flow (CBF) in real time. • 8. The animals' forehead hair was shaved off, to expose forehead skin. The forehead skin was cleaned with alcohol, and attached with a cerebral oxygen monitoring probe, and then a cerebral oxygen monitor was attached to monitor the change of regional cerebral oxygen saturation (rSO2) in real time. • 9. The body temperature of the animals was maintained at a normal temperature of about 38° C. all the time by using a temperature control blanket.\n• 1. Setting model conditions: 8 min of cardiac arrest and 8 min of cardiopulmonary resuscitation. • 2. Cardiac arrest method: inducing ventricular fibrillation by right ventricular electrode discharge, and observing for 8 min without intervention. • 3. Cardiopulmonary resuscitation method: • 1) continuous manual external chest compression; • 2) mechanical ventilation was carried out by using a respirator (parameters were IPPV (intermittent positive pressure ventilation) mode, with oxygen concentration of 100%, tidal volume of 7 ml/kg, respiratory frequency of 10 times/min, and positive end-expiratory pressure of 0 mmHg); • 3) adrenalin: when cardiopulmonary resuscitation was performed for 2 min, adrenalin was given by 20 μg/kg, thereafter, the same was repeated every 4 min; • 4) defibrillation: when cardiopulmonary resuscitation was performed for 8 min, 150 J electrical defibrillation was performed once; and • 5) if spontaneous circulation was not restored, cardiopulmonary resuscitation was immediately restarted for 2 min, followed by one time of defibrillation. This cycle was repeated for 5 times or less until the resuscitation was successful or declared to be failed. • 4. […]"}, "[2]": {"test_system": "model of cardiac arrest and resuscitation", "assay": "Cardiac function (PiCCO) and myocardial injury biomarker after resuscitation", "conditions": "28.5 mg/kg i.v., P<0.05, FIG. 2", "method": "as §1, with “Right carotid artery was exposed by operation, superficial fascia was stripped off, a carotid blood flow sensor was arranged, and then a blood flow velocity ultrasonic recorder was connected to monitor the change of carotid blood flow (CBF) in real time. • 8. The animals' forehead hair was shaved off, to expose forehead skin. The forehead skin was cleaned with alcohol, and attached with a cerebral oxygen monitoring probe, and then a cerebral oxygen monitor was attached to monitor the change of regional cerebral oxygen saturation (rSO2) in real time. • 9. The body temperature of the animals was maintained at a normal temperature of about 38° C. all the time by using a temperature control blanket.” left out"}, "[3]": {"test_system": "model of cardiac arrest and resuscitation", "assay": "Cerebral function (NDS) and brain injury biomarkers after resuscitation", "conditions": "28.5 mg/kg i.v., P<0.05, FIG. 3", "method": "(§2) • 1. Setting model conditions: 8 min of cardiac arrest and 8 min of cardiopulmonary resuscitation. • 2. Cardiac arrest method: inducing ventricular fibrillation by right ventricular electrode discharge, and observing for 8 min without intervention. • 3. […]\n(§3) • 1. Changes in physiological indexes such as heart rate, blood pressure, ETCO2, CBF, rSO2, and body temperature were dynamically monitored throughout the experiment, and the survival outcomes of the animals at 4 h and 24 h were recorded. • 2. During cardiopulmonary resuscitation, the changes in CPP, ETCO2, CBF, and rSO2 were continuously monitored dynamically, and the duration of cardiopulmonary resuscitation, number of defibrillation, dosage of adrenaline, and rate of return of spontaneous circulation of various groups of animals were recorded. • 3. Before modeling and at 1 h, 2 h, and 4 h after resuscitation, the changes in cardiac function such as SV and GEF were periodically detected by using a PiCCO monitor. • 4. […] The blood plasma was frozen and stored in a −80° C. deep hypothermia freezer, and serum levels of myocardial injury biomarker cardiac troponin I (cTnI), brain injury biomarker neuron specific enolase (NSE) and S100B protein (S100B), renal and intestinal injury biomarker creatinine (Cr) and intestinal fatty acid-binding protein (iFABP) were detected by using an enzyme-linked immunosorbent assay at selected time. • 5. […]"}, "[4]": {"test_system": "model of cardiac arrest and resuscitation", "assay": "Renal and intestinal injury biomarkers after resuscitation", "conditions": "28.5 mg/kg i.v., P<0.05, FIG. 4", "method": "as §2, §3"}, "[5]": {"test_system": "model of cardiac arrest and resuscitation", "assay": "Cell apoptosis in heart, brain, kidney and intestine by TUNEL after resuscitation", "conditions": "at 24 h after resuscitation, 28.5 mg/kg i.v., P<0.05, FIG. 5", "method": "as §2, §3"}, "[6]": {"conditions": "during cardiopulmonary resuscitation, almost all time points, 28.5 mg/kg i.v., P<0.05, FIG. 1"}, "[7]": {"conditions": "in words, 28.5 mg/kg i.v., P<0.05"}, "[8]": {"conditions": "pigs, sodium octanoate 28.5 mg/kg intravenously at start of CPR, n=8, P<0.05 vs CPR group"}, "[9]": {"conditions": "pigs, sodium octanoate 28.5 mg/kg intravenously at start of CPR, P<0.05 vs CPR group"}, "[10]": {"conditions": "starting 1 h after resuscitation"}},
  "note": "Marks after values point to notes of the source that are not given here.",
  "data": [
    {"smiles": "CCCCCCCC(=O)[O-].[Na+]", "note": "[SO, sodium octanoate]", "values": [
      {"measurement": "CBF (carotid blood flow) compared with the CPR group", "setting": "[1]; [6]", "result": "obviously higher"},
      {"measurement": "CPP (coronary perfusion pressure) compared with the CPR group", "setting": "[1]; [6]", "result": "obviously higher"},
      {"measurement": "ETCO2 (partial pressure of end-tidal carbon dioxide) compared with the CPR group", "setting": "[1]; [6]", "result": "obviously higher"},
      {"measurement": "rSO2 (regional cerebral oxygen saturation) compared with the CPR group", "setting": "[1]; [6]", "result": "obviously higher"},
      {"measurement": "Dosage of adrenaline compared with the CPR group", "setting": "[1]; [7]", "result": "decreased"},
      {"measurement": "Duration of cardiopulmonary resuscitation compared with the CPR group", "setting": "[1]; [7]", "result": "shortened"},
      {"measurement": "Number of defibrillation compared with the CPR group", "setting": "[1]; [7]", "result": "reduced"},
      {"measurement": "Rate of return of spontaneous circulation compared with the CPR group", "setting": "[1]; [7]", "result": "increased"},
      {"measurement": "Survival rates at 4 h and 24 h post-resuscitation compared with the CPR group", "setting": "[1]; [7]", "result": "increased"},
      {"measurement": "Duration of cardiopulmonary resuscitation", "setting": "[1]; pigs, 8 min cardiac arrest, sodium octanoate 28.5 mg/kg intravenously at start of CPR, n=8, P<0.05 vs CPR group", "result": "8.00 ± 0.00", "unit": "min"},
      {"measurement": "Dosage of adrenaline", "setting": "[1]; [8]", "result": "1.59 ± 0.08", "unit": "mg"},
      {"measurement": "Number of defibrillation", "setting": "[1]; [8]", "result": "1.00 ± 0.00", "unit": "n"},
      {"measurement": "4-h survival", "setting": "[1]; [9]", "result": "8/8^#"},
      {"measurement": "24-h survival", "setting": "[1]; [9]", "result": "8/8^#"},
      {"measurement": "Return of spontaneous circulation", "setting": "[1]; [9]", "result": "8/8^#"},
      {"measurement": "GEF (global ejection fraction) compared with the CPR group", "setting": "[2]; [10]", "result": "obviously higher"},
      {"measurement": "SV (stroke volume) compared with the CPR group", "setting": "[2]; [10]", "result": "obviously higher"},
      {"measurement": "Serum level of cTnI (cardiac troponin I) compared with the CPR group", "setting": "[2]; starting 4 h after resuscitation", "result": "markedly lower"},
      {"measurement": "Serum level of S100B compared with the CPR group", "setting": "[3]; at 1 h, 2 h, and 24 h after resuscitation", "result": "remarkably reduced"},
      {"measurement": "Serum level of NSE (neuron specific enolase) compared with the CPR group", "setting": "[3]; at 4 h and 24 h after resuscitation", "result": "remarkably reduced"},
      {"measurement": "NDS (neurological deficit score) compared with the CPR group", "setting": "[3]; at 24 h after resuscitation", "result": "remarkably lower"},
      {"measurement": "Serum levels of Cr (creatinine) compared with the CPR group", "setting": "[4]; at 2 h and 24 h after resuscitation", "result": "remarkably reduced"},
      {"measurement": "Serum level of iFABP (intestinal fatty acid-binding protein) compared with the CPR group", "setting": "[4]; at 24 h after resuscitation", "result": "remarkably reduced"},
      {"measurement": "Cell apoptosis of various organs (heart, brain, kidney, intestine; TUNEL) compared with the CPR group", "setting": "[5]", "result": "remarkably reduced"}
    ]}
  ]
}
